Here are results for 3 molecules from patent publication US4532327A, “Sesbanimide and the use thereof in treating leukemic tumors” (priority 1983, dated 1985).

As a reminder, the T/C is the result in the treated group divided by that in the control group, in per cent.

Where two headings read alike, the source gives them in different places.

Assay [1] relates to KB cell. The settings on record: attributed in U.S. Pat. No. 4,200,639 (disclaimed); cited from earlier work.
For assay [2], the system named is lymphocytic leukemia P388 (PS). As to conditions: attributed in U.S. Pat. No. 4,200,639 (disclaimed); cited from earlier work.
In assay [3] the test system is KB Cell Culture. In kind it is cell-based. The settings on record: Example 1 fractions, active if ED50 ≤30 μg./ml. The procedure:
Chemotherapeutic Activity. The chemotherapeutic activities of the fractions obtained in the isolation procedure of Example 1 were determined in part by a KB Cell Culture Screen in accordance with the National Cancer Institute Protocol 1.600 [Geran et al., Cancer Chemother, Rep., Part 3, 3(2): 17 (1972)]. […] Such a dose is referred to as ED50 and activity is indicated for ED50 levels of ≤30 μg./ml.

Assay [4] relates to lymphocytic leukemia cells of the strain P388 (PS tumors). As to the kind of experiment: lymphocytic leukemia P388 (PS tumors) implanted in mice (NCI Protocol 1.200). As to conditions: active if ≥125%. In kind it is in vivo, mice (CDF1). The procedure:
As previously mentioned, the fractionation of Example 1 was also guided by assaying the effectiveness of the various fractions against lymphocytic leukemia cells of the strain P388 (PS tumors) implanted in mice. These assays were made according to the National Cancer Institute Protocol 1.200 described in Geran et al., supra, page 9. Starting 24 hr. after the tumor implantation, previously determined dosages of each fraction were injected intraperitoneally once a day for 9 days. Survival time of treated leukemic mice is compared to that of untreated leukemic mice (T/C×100). A T/C value of 100% indicated no activity. A T/C value greater than 100% means that the treated mice are surviving longer than the control mice. A fraction giving a T/C value greater than 125% is indicative of activity as defined by the NCI Protocols, above. Activities of the fractions comprising the pure or substantially pure sesbanimide isolates as reported in Table II establish the utility of the compounds as antileukemic agents.
(§1) ^1 All hosts were type CDF1 mice. Six replicate mice were tested
(§2) ^2 The doses are reported as micrograms per kilogram of host body
(§3) weight per injection. The injection vehicle in all cases was water.
(§4) ^3 T/C = mean survival time of test animals/mean survival time of
(§5) control animals; 125% or above considered active.

The test system of assay [5] is lymphoid leukemia L1210. As to the kind of experiment: lymphoid leukemia L1210 in mice (NCI Protocol 1.100). In kind it is in vivo. The settings on record: female CDF1 mice, active if ≥125%. The procedure: This assay was conducted in accordance with the NCI Protocol 1.100 described in Geran et al., supra, page 7. Starting 24 hr. after the tumor implantation, predetermined doses of the compound were injected intraperitoneally once a day for 9 days.
as §1, §2, §3, §4, §5

Consider `O=C1NC(=O)[C@@]2(CC[C@@H](O)C2)c2ccncc21` [sesbanine], for which the “apparent activity in the KB cell screen” value in assay [1] was “result of a heretofore unidentified impurity”. Also, the “apparent activity in the PS tumor system” value in assay [2] was “result of a heretofore unidentified impurity”.

As for `C=C1COC(O)(C2OCOC(C3CC(=O)NC(=O)C3)C2O)C1C` (stereo not drawn) [Sesbanimide A], in assay [3] (listed as K443, 4320 min), the “ED50 (dose that inhibits growth to 50% of control growth by 3 days after drug addition)” value amounted to 0.0077 mg/L. The T/C in assay [4] (female CDF1 mice, 2.00 μg./kg./inj. i.p. once a day for 9 days) is 119%; in assay [4] (female CDF1 mice, 4.00 μg./kg./inj. i.p. once a day for 9 days) it was 119%; in assay [4] (female CDF1 mice, 8.00 μg./kg./inj. i.p. once a day for 9 days), 140%; in assay [4] (female CDF1 mice, 16.00 μg./kg./inj. i.p. once a day for 9 days), 149%; in assay [4] (female CDF1 mice, 32.00 μg./kg./inj. i.p. once a day for 9 days) it was 181%; in assay [5] (16.00 μg./kg./inj. i.p. once a day for 9 days) it was 116%. Also, the results for the T/C in assay [5] (32.00 μg./kg./inj. i.p. once a day for 9 days) and in assay [5] (64.00 μg./kg./inj. i.p. once a day for 9 days) were 135% and “toxic”, respectively.

Take `C=C1COC(O)(C2OCOC(C3CC(=O)NC(=O)C3)C2O)C1C` (stereo not drawn) [Sesbanimide B]: in assay [3] (listed as K442, 4320 min), the “ED50 (dose that inhibits growth to 50% of control growth by 3 days after drug addition)” value amounted to 0.068 mg/L. The T/C in assay [4] (male CDF1 mice, 1.87 μg./kg./inj. i.p. once a day for 9 days) was 157%; in assay [4] (male CDF1 mice, 3.75 μg./kg./inj. i.p. once a day for 9 days) it was 161%; in assay [4] (male CDF1 mice, 7.50 μg./kg./inj. i.p. once a day for 9 days) it was “toxic”.
